These are literature values, as cited in patent publication US20220287347A1, “PEPTIDES FOR TREATING MUSCLE ATROPHY” (NURITAS LIMITED, priority 2019, published 2022).

For data set [1] the following is noted: binding to lipoproteins.

Turning to `NC(=O)CC[C@@H]1NC(=O)[C@H](Cc2ccccc2)NC(=O)[C@H](Cc2ccc(O)cc2)NC(=O)[C@@H](N)CSSC[C@@H](C(=O)N2CCC[C@H]2C(=O)N[C@@H](CCCN=C(N)N)C(=O)NCC(N)=O)NC(=O)[C@H](CC(N)=O)NC1=O` [vasopressin], the half-life in humans was 10 to 35 min.

Turning to `C[C@@H](O)[C@@H]1NC(=O)[C@H](CCCCN)NC(=O)[C@@H](Cc2c[nH]c3ccccc23)NC(=O)[C@H](Cc2ccccc2)NC(=O)[C@@H](NC(=O)[C@H](N)Cc2ccccc2)CSSC[C@@H](C(=O)N[C@H](CO)[C@@H](C)O)NC1=O` [octreotide], the half-life in humans result is reported as “about 100 min”. Also, the fraction unbound (in general, the share of the substance not bound to proteins or other matrix) in data set [1] is given as 0.65.
